For three molecules, Ki results are on record in patent US5994369A, “Substituted piperidine or pyrrolidine compounds for treating sigma-receptor modulated disorders” (Byk Gulden Lomberg Chemische Fabrik GmbH, priority 1995, dated 1999).

One experiment addresses Sigma receptors (Homo sapiens, UniProt Q99720). As to the kind of experiment: Sigma receptor affinity (pentazocine binding).
The next experiment concerns the target NMDA receptors. Nature of the experiment: NMDA receptor affinity (MK 801 binding). The procedure: The affinity and selectivity of the compounds described above in greater detail for sigma receptors in comparison with NMDA receptors were determined following published methods (Kornhuber et al.: Eur. J. Pharmacol. 162, 483-490, 1989 and Neurosci. Lett. 163, 129-131, 1993).

Each structure is given as a SMILES string.

Sigma receptors, sequence (Q99720 whole entry): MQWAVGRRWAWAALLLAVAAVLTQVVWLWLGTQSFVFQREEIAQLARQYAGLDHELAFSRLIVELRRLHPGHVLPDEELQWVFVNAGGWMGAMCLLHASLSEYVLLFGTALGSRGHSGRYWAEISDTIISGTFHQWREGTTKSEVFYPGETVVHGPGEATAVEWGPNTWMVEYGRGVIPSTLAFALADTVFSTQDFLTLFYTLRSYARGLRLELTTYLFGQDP

Usually Ki stands for the dissociation constant of the complex between target and ligand, obtained from inhibition or displacement. For `CC(C)(C)N1CCC(c2ccccc2)(c2ccccc2)CC1` [Budipine, budipine], the inhibitory constant (Ki) was 2 µM on Sigma receptors and 11.7 µM on NMDA receptors.

On to `CC12CC3CC(C)(C1)CC(N)(C3)C2` [Memantine], for which the inhibition constant (Ki) on Sigma receptors came out at 20 µM; at NMDA receptors, 0.5 µM.

`NC12CC3CC(CC(C3)C1)C2` [Amantadine] showed a Ki on NMDA receptors of 10.5 µM.
